Read-outs that look alike come from different tables or passages of the source.
Key:
[1] = test system: IFNα-stimulated STAT-dependent luciferase reporter in Kit225 T cells; experiment: Kit225 T cell assay, IFNα stimulated STAT-dependent luciferase reporter; assay type: cell-based, human
Description: (§1) Kit225 T cells with a stably-integrated STAT-dependent luciferase reporter were plated in RPMI (Gibco) containing 10% heat-inactivated FBS (Gibco) and 100 U/mL PenStrep (Gibco). The cells were then stimulated with either 20 ng/mL human recombinant IL-23 or 200 U/mL human recombinant IFNα (PBL InterferonSource) for 5-6 hours. Luciferase expression was measured using the STEADY-GLO® Luciferase Assay System (Promega) according to the manufacturer's instructions.

[2] = test system: IL-23-stimulated STAT-dependent luciferase reporter in Kit225 T cells; experiment: Kit225 T cell assay, IL-23 stimulated STAT-dependent luciferase reporter; assay type: cell-based, human
Description: as §1

[3] = Kit225 T cells, 200 U/mL human recombinant IFNα, 5-6 hours, luciferase, read-out: IFNα (Kit225 T Cell Inhibition Data)
[4] = Kit225 T cells, 20 ng/mL human recombinant IL-23, 5-6 hours, luciferase, read-out: IL23 (Kit225 T Cell Inhibition Data)

IC50 [1, 3] | IC50 [2, 4] | SMILES | IC50 ([1]; Homo sapiens, KIT225, read-out: IFNα (Kit225 T Cell Inhibition Data)) | IC50 ([2]; Homo sapiens, KIT225, read-out: IL23 (Kit225 T Cell Inhibition Data))
110 nM | 400 nM | CNC(=O)c1cnc(Nc2cc(C)c(F)cn2)cc1Nc1cccc(C(=O)NCCC(C)C)c1OC [Example 338] | – | –
180 nM | 250 nM | CCOc1ccc(Nc2cc(Nc3ccccc3S(C)(=O)=O)c(C(=O)NC)cn2)nn1 [Example 444] | – | –
240 nM | 460 nM | CNC(=O)c1cnc(Nc2ccc(N3CCCC3=O)cn2)cc1Nc1ccccc1S(C)(=O)=O [Example 441] | – | –
5830 nM | 11900 nM | CNC(=O)c1cnc(Nc2ccc(F)cn2)cc1Nc1cccc(C)c1 [Example 197] | – | –
120 nM | 152 nM | CNC(=O)c1cnc(Nc2ccc(N3CCOCC3)cn2)cc1Nc1ccccc1OC [Example 216] | – | –
30 nM | 50 nM | CNC(=O)c1cnc(Nc2cc(C)c(F)cn2)cc1Nc1cccc(C(=O)NC)c1OC [Example 320] | – | –
780 nM | 1230 nM | CNC(=O)c1cnc(Nc2ccc(C(F)(F)F)cn2)cc1Nc1ccccc1C(N)=O [Example 82] | – | –
140 nM | 263 nM | CNC(=O)c1cnc(Nc2cccc(C)n2)cc1Nc1ccccc1C(N)=O [Example 67] | – | –
1540 nM | 3930 nM | CNC(=O)c1cnc(Nc2ccc(C#N)cn2)cc1Nc1ccccc1C(N)=O [Example 92] | – | –
110 nM | 135 nM | CNC(=O)c1cnc(Nc2cc(C(F)(F)F)ccn2)cc1Nc1ccccc1S(C)(=O)=O [Example 14] | – | –
20 nM | 60 nM | CNC(=O)c1cnc(Nc2cc(C)nc(C)n2)cc1Nc1cccc(-c2nnc(C)o2)c1OC [Example 361] | – | –
710 nM | 1560 nM | CNC(=O)c1cnc(Nc2ccc(C(N)=O)cn2)cc1Nc1ccc(Cl)cc1OC [Example 255] | – | –
50 nM | 100 nM | CNC(=O)c1cnc(Nc2ccc(OC)cn2)cc1Nc1ccccc1S(C)(=O)=O [Example 434] | – | –
250 nM | 535 nM | CNC(=O)c1cnc(Nc2ccc(F)cn2)cc1Nc1ccccc1OC(F)F [Example 122] | – | –
1310 nM | 1580 nM | CNC(=O)c1cnc(Nc2ccc(F)cn2)cc1Nc1ccccc1OC(F)(F)F [Example 209] | – | –
11400 nM | 4780 nM | CNC(=O)c1cnc(Nc2ccc3ccccc3n2)cc1NC1CCC(F)(F)CC1O (stereo not shown) [Example 293] | – | –
1870 nM | 2800 nM | CNC(=O)c1cnc(Nc2ccc(F)cn2)cc1Nc1ccc(C(N)=O)cc1C [Example 234] | – | –
8.77 nM | 60 nM | [2H]C([2H])([2H])NC(=O)c1cnc(Nc2cc(C)nc(C)n2)cc1Nc1cccc(-c2cnn(C)c2)c1OC [Example 397] | – | –
220 nM | 354 nM | CNC(=O)c1cnc(Nc2cccc(C(F)(F)F)n2)cc1Nc1cc(F)cc(F)c1OC [Example 138] | – | –
670 nM | 1080 nM | CNC(=O)c1cnc(Nc2ccc(F)cn2)cc1Nc1ccccc1C(=O)N(C)C [Example 251] | – | –
2650 nM | 2340 nM | CNC(=O)c1cnc(Nc2ccc(F)cn2)cc1Nc1ccc(C(N)=O)cc1S(C)(=O)=O [Example 303] | – | –

IC50 [1, 3] | IC50 [2, 4] | SMILES | IC50 ([1]; Homo sapiens, KIT225, read-out: IFNα (Kit225 T Cell Inhibition Data)) | IC50 ([2]; Homo sapiens, KIT225, read-out: IL23 (Kit225 T Cell Inhibition Data))
300 nM | 751 nM | CNC(=O)c1cnc(Nc2cc(C)ccn2)cc1Nc1ccc(F)cc1OC [Example 148] | – | –
10 nM | 20 nM | CNC(=O)c1cnc(Nc2cc(C)nc(C)n2)cc1Nc1cccc(-c2nnc[nH]2)c1OC [Example 362] | – | –
260 nM | 250 nM | CNC(=O)c1cnc(Nc2ccc(C#N)c(C)n2)cc1Nc1ccccc1S(C)(=O)=O [Example 440] | – | –
420 nM | 567 nM | CNC(=O)c1cnc(Nc2cc(C(F)(F)F)ccn2)cc1Nc1ccccc1C(N)=O [Example 91] | – | –
410 nM | 742 nM | CNC(=O)c1cnc(Nc2ccc(N3CCCC3=O)cn2)cc1Nc1ccc(F)cc1OCF [Example 142] | – | –
80 nM | 200 nM | CNC(=O)c1cnc(Nc2ccc(N3CCOCC3)cn2)cc1Nc1ccc(F)c(F)c1OC [Example 101] | – | –
20 nM | 60 nM | CNC(=O)c1cnc(Nc2cc(C)c(F)cn2)cc1Nc1cccc(C(=O)NCc2ccccc2)c1OC [Example 351] | – | –
– | – | CNC(=O)c1cnc(Nc2cc(C)c(F)cn2)cc1Nc1cccc(-c2nc(C)nn2C)c1OC [Example 386] | 10 nM | 20 nM
120 nM | 370 nM | CNC(=O)c1cnc(Nc2ccc(C(F)(F)F)cn2)cc1Nc1ccccc1S(C)(=O)=O [Example 59] | – | –
210 nM | 350 nM | CNC(=O)c1cnc(Nc2cc(COC)nc(C)n2)cc1Nc1ccccc1S(C)(=O)=O [Example 418] | – | –
540 nM | 410 nM | CNC(=O)c1cnc(Nc2cc(C)ccn2)cc1Nc1cccc(F)c1S(C)(=O)=O [Example 49] | – | –
9030 nM | 5950 nM | CNC(=O)c1cnc(Nc2ccc(F)cn2)cc1Nc1cc(F)ccc1F [Example 64] | – | –
500 nM | 434 nM | CNC(=O)c1cnc(Nc2ccc(F)cn2)cc1Nc1cccc(F)c1C(N)=O [Example 175] | – | –
760 nM | 574 nM | CNC(=O)c1cnc(Nc2cc(F)ccn2)cc1Nc1ccccc1C(N)=O [Example 71] | – | –
160 nM | 224 nM | CCOc1c(F)cc(F)cc1Nc1cc(Nc2ccc(N3CCOCC3)cn2)ncc1C(=O)NC [Example 230] | – | –
260 nM | 236 nM | CNC(=O)c1cnc(Nc2cccc(F)n2)cc1Nc1ccccc1C(N)=O [Example 74] | – | –
210 nM | 188 nM | CNC(=O)c1cnc(Nc2cc(F)ccn2)cc1Nc1cc(F)cc(F)c1OC [Example 137] | – | –
3290 nM | 7300 nM | CCNC(=O)c1cnc(Nc2ccc(F)cn2)cc1Nc1ccccc1C(N)=O [Example 295] | – | –
600 nM | 1060 nM | CNC(=O)c1cnc(Nc2cc(C(=O)N(C)C)ccn2)cc1Nc1ccc(F)cc1OC [Example 272] | – | –
600 nM | 577 nM | CNC(=O)c1ccnc(Nc2cc(Nc3ccc(F)c(F)c3OC)c(C(=O)NC)cn2)c1 [Example 257] | – | –
140 nM | 140 nM | CNC(=O)c1cnc(Nc2cc(C#N)ccn2)cc1Nc1ccccc1NS(C)(=O)=O [Example 281] | – | –

IC50 [1, 3] | IC50 [2, 4] | SMILES | IC50 ([1]; Homo sapiens, KIT225, read-out: IFNα (Kit225 T Cell Inhibition Data)) | IC50 ([2]; Homo sapiens, KIT225, read-out: IL23 (Kit225 T Cell Inhibition Data))
190 nM | 386 nM | CNC(=O)c1cnc(Nc2ccc(N3CCOC3=O)cn2)cc1Nc1ccc(Cl)cc1OC [Example 105] | – | –
1540 nM | 4550 nM | CNC(=O)c1cnc(Nc2ccc3[nH]ccc3n2)cc1Nc1ccc(Cl)cc1OC [Example 114] | – | –
1650 nM | 2380 nM | CCN(CC)C(=O)c1ccc(Nc2cc(Nc3ccc(F)cn3)ncc2C(=O)NC)cc1 [Example 246] | – | –
230 nM | 293 nM | CNC(=O)c1cnc(Nc2ccc(F)cn2)cc1Nc1ccc(C(=O)N2CCCCC2)cc1OC [Example 239] | – | –
600 nM | 250 nM | CCNC(=O)c1cnc(Nc2ccc(F)cn2)cc1Nc1ccccc1S(C)(=O)=O [Example 297] | – | –
200 nM | 876 nM | CNC(=O)c1cnc(Nc2cc(C)ccn2)cc1Nc1ccc(Cl)cc1OC [Example 113] | – | –
1540 nM | 3740 nM | CNC(=O)c1cnc(Nc2ccc(F)cn2)cc1Nc1ccc(C(=O)NC2CC2F)cc1S(C)(=O)=O (stereo not shown) [Example 307] | – | –
350 nM | 369 nM | CNC(=O)c1cnc(Nc2cc(C#N)ccn2)cc1Nc1ccccc1C(N)=O [Example 84] | – | –
1910 nM | 6120 nM | CNC(=O)c1cnc(Nc2cnc(C#N)cn2)cc1Nc1ccccc1S(C)(=O)=O [Example 41] | – | –
40 nM | 97.8 nM | CNC(=O)c1cnc(Nc2ccc(N3CCOCC3)cn2)cc1Nc1ccccc1S(C)(=O)=O [Example 9] | – | –
3600 nM | 5060 nM | CNC(=O)c1cnc(Nc2ccc(C(=O)N3CCOCC3)cn2)cc1Nc1ccc(Cl)cc1OC [Example 263] | – | –
150 nM | 244 nM | CNC(=O)c1cnc(Nc2cc(C#N)ccn2)cc1Nc1ccc(Cl)cc1OC [Example 121] | – | –
630 nM | 1040 nM | CNC(=O)c1cnc(Nc2ccc(N3CCOCC3)cn2)cc1Nc1ccccc1C(N)=O [Example 85] | – | –
190 nM | 160 nM | CNC(=O)c1cnc(Nc2cc(F)ccn2)cc1Nc1cc(F)ccc1S(C)(=O)=O [Example 57] | – | –
2990 nM | 4410 nM | CNC(=O)c1cnc(Nc2cccc(-n3ccccc3=O)n2)cc1Nc1cc(F)cc(F)c1OC [Example 164] | – | –
260 nM | 409 nM | CNC(=O)c1cnc(Nc2ccc(F)cn2)cc1Nc1ccc(C(=O)N2CCC(F)(F)C2)cc1OC [Example 247] | – | –
610 nM | 760 nM | CNC(=O)c1cnc(Nc2ccc(OC)cn2)cc1Nc1ccc(F)cc1OC [Example 161] | – | –
10 nM | 10 nM | CNC(=O)c1cnc(Nc2cc(C)nc(C)n2)cc1Nc1cccc(-c2ncn(C)n2)c1OC [Example 372] | – | –
560 nM | 1040 nM | CNC(=O)c1cnc(Nc2ccc(F)cn2)cc1Nc1cccc(C)c1C(N)=O [Example 174] | – | –
410 nM | 774 nM | CNC(=O)c1cnc(Nc2ccc(F)cn2)cc1Nc1ccccc1C(N)=O [Example 63] | – | –

SMILES | IC50 [1, 3] | IC50 [2, 4] | IC50 ([1]; Homo sapiens, KIT225, read-out: IFNα (Kit225 T Cell Inhibition Data)) | IC50 ([2]; Homo sapiens, KIT225, read-out: IL23 (Kit225 T Cell Inhibition Data))
CNC(=O)c1cnc(Nc2cnc(C)cn2)cc1Nc1ccccc1S(C)(=O)=O [Example 40] | 130 nM | 130 nM | – | –
CNC(=O)c1cnc(Nc2cnccn2)cc1Nc1ccccc1S(C)(=O)=O [Example 38] | 370 nM | 550 nM | – | –
CCS(=O)(=O)c1ccccc1Nc1cc(Nc2ccccn2)ncc1C(=O)NC [Example 31] | 1230 nM | 1860 nM | – | –

— patent publication US9315494B2, “Alkyl-amide-substituted pyridyl compounds useful as modulators of IL-12, IL-23 and/or IFNα responses” (Bristol-Myers Squibb Company, priority 2012, dated 2016)
